The text below walks through data of paper PMC12326976 (Antimicrobial Agents and Chemotherapy, 2025).

Series [1] has as its system H1N1 virus. The series is described as follows: Viral attachment assay, H1N1 on MDCK cells. In kind it is cell-based, influenza H1N1 virus. Here is the method: Viruses (H1N1 or rhinovirus A1) were treated with DMEM, 4H30 (25 µg mL^−1), or an influenza neutralization antibody at room temperature for 30 min and then added to cells for attachment at 4°C for 1 h. After washing the unbound virus, the attached virus on cells was measured by RT-qPCR. At least two experiments with biological duplication samples were included for each treatment.
MDCK cells were treated by ChABC (Sigma, Cat^# C2905, 1 U mL^−1), Hase I–III (Sigma, Cat^# H3917, 100 mU mL^−1), and Hase II (Sigma, Cat^# H6515, 100 mU mL^−1) at 37°C for 2 h in the buffer according to the manufacturer’s instruction. After washing cells with PBS, MEM or 4H30 (25 µg mL^−1) was added to cells for 30 min incubation, and then cells were washed with PBS. H1N1 (MOI = 1.0) was added to cells for attachment at 4°C for 1 h. The unbound virus was washed with PBS. The concentration of the attached virus was measured by RT-qPCR.

Series [2] concerns H1N1 virus. It counts as cell-based, influenza H1N1 virus.
For series [3], the system named is MDCK cells. Description: Cytotoxicity MTT assay in MDCK cells. In kind it is cell-based, canine. The conditions noted are these: 24 h incubation, Fig. 1f. As for the experimental part:
Cytotoxicity of peptides was determined by detecting 50% cytotoxic concentration (CC50) using a tetrazolium-based colorimetric MTT assay ([27]). Cells were seeded in a 96-well cell culture plate at an initial density of 4 × 10^4 cells per well in MEM, supplemented with 10% FBS and incubated overnight. Cell culture media were removed, and then MEM supplemented with various concentrations of peptides and 1% FBS was added to each well. After 24 h incubation at 37°C, the MTT solution (5 mg mL^−1, 10 µL per well) was added to each well for incubation at 37°C for 4 h. Then, 100 µL of 10% SDS in 0.01M HCl was added to each well. After further incubation at room temperature with shaking overnight, the plates were read at OD570 using the VictorTM X3 Multilabel Reader (PerkinElmer, USA). Cell culture wells without peptides were used as the experiment control, and the medium was a blank control.
A general note: Tetrazolium assays rely on reduction of a dye to a coloured formazan, in cell work by metabolically active cells.

The target of series [4] is Influenza HA (Influenza A virus, UniProt C3W5S1). The series is described as follows: ELISA binding assay, HA. The conditions noted are these: 4H30 1 µg coated, HA 100 ng, anti-His antibody, Fig. 2a. Here is the method: (§1) Peptides (1.0 µg per well) were dissolved in H2O. Influenza HA, NA (Sino, Cat^# 11058-V07B), or LDLR (Sino, Cat^# 10231-H081-50, 100 ng) dissolved in PBS was coated onto ELISA plates, incubated at 4°C overnight, and blocked with BSA at 4°C overnight. HA or VP1 was added to wells for binding and then determined by incubation with goat anti-His-HRP (Invitrogen, Cat^# R93125, 1: 2,000) at 37°C for 30 min. The reaction was developed by adding 100 µL of the TMB single solution (Life Technologies, Cat^# 002023) for 15 min at 37°C and stopped with 50 µL of 1 M H2SO4. Readings were obtained in an ELISA plate reader (Victor 1420 Multilabel Counter; PerkinElmer) at 450 nm.
Chain of Influenza HA (C3W5S1 entry or part of it, added parts left off): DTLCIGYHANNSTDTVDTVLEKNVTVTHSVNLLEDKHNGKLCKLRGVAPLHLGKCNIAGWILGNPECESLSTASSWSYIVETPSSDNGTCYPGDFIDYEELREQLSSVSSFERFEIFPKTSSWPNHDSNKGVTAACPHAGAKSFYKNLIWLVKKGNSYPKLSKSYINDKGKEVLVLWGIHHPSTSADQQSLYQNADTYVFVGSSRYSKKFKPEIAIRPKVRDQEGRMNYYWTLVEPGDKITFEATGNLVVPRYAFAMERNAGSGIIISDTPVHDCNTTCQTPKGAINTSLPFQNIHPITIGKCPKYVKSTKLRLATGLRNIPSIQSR
(In an ELISA, binding on a coated surface is turned into a signal by an enzyme label.)

Series [5] addresses T1, LDLR (Homo sapiens, UniProt P01130).
T1 construct: His; purchased Sino 10231-H081-50
Description: ELISA binding assay, LDLR. The conditions noted are these: 4H30 1.0 µg, 0.25 µg and 0 µg, Fig. 4g. Here is the method: as §1

For series [6], the system named is neuraminidase activity of H1N1 virus. The series is described as follows: Viral neuraminidase assay (NA-STAR). In kind it is biochemical, influenza H1N1 virus. The conditions noted are these: 4H30 50 and 12.5 µg mL^−1, 1 h, compared to zanamivir, Fig. S3. As for the experimental part:
Fig. S3. […] H1N1 virus was treated with MEM, zanamivir (5 μM and 1.25 μM), and 4H30 (50 μg mL^−1and 12.5 μg mL^−1) for 1 h. The neuraminidase activity was analysed using the Invitrogen NA-STAR INFLUENZA NIRD REAGENT (Cat^# 4374348). Data are presented as mean ± SD of indicated biological samples.

For series [7], the system named is rhinovirus A1. Description: Anti-rhinovirus assay in nasal organoids. It counts as cell-based. The note with it: 4H30 25 µg mL^−1; viral loads in supernatants at 24, 48 and 72 hpi; RT-qPCR; Fig. 5b. As for the experimental part: Organoid culture was established according to previous studies ([28], [29]). When the cells differentiated into mature 2D airway organoids within 12–14 days, the 2D organoids were ready for antiviral experiments. Rhinovirus (5000 TCID50) was mixed with peptide (25 µg mL^−1) or without peptides in culture media for organoid infection. After 2 h infection, we removed the infectious media and added fresh media with or without peptides. The supernatants were collected at 2 hpi, 24 hpi, 48 hpi, and 72 hpi to measure the viral loads by RT-qPCR.
Fig 5 4H30 inhibited rhinovirus replication in nasal organoids and cardiomyocytes. (a) Rhinovirus A1 could not replicate efficiently in mice. Rhinovirus (1 × 10^7 TCID50) was intranasally inoculated to mice. Viral RNAs were measured on day 1, day 2, and day 3 post-infection. […] (c) Rhinovirus A1 (0.01 MOI) could effectively replicate in cardiomyocytes. […] Viral RNAs in the cell supernatants were measured by RT-qPCR at the indicated time points. Data are presented as mean ± SD of indicated biological samples.
For orientation: In qPCR the cycle at which signal appears reflects the starting amount.

Bridge positions count the residues as written; N and C are the ends. Ends that are not written are not given here. I, II: the chains in the order shown.

T1 sequence (P01130 22-860): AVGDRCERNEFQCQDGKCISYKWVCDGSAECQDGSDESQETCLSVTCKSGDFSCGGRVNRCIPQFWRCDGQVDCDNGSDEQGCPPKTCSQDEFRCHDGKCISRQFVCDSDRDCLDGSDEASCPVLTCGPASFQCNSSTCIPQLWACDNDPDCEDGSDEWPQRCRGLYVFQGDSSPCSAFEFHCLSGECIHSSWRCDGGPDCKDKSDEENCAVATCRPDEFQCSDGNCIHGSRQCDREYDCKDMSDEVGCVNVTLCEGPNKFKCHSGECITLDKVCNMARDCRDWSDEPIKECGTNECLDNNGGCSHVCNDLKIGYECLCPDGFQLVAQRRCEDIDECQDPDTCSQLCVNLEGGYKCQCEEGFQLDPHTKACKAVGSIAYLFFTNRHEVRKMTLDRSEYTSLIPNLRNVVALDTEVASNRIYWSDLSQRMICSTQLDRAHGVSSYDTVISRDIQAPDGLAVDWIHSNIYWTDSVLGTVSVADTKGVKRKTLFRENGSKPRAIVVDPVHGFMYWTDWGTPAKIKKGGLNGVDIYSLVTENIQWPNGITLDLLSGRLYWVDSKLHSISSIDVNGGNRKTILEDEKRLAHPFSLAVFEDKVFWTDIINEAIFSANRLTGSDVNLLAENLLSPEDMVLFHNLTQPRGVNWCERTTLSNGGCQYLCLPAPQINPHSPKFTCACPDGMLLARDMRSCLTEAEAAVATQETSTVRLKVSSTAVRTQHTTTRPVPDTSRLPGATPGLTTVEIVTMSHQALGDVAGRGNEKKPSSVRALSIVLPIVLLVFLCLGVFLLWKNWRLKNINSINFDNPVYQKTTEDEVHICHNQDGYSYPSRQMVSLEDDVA

As for “I: GAICHPVFCPRRYKQIGTCGLPGTKCCKKPKK / II: GAICHPVFCPRRYKQIGTCGLPGTKCCKKPK / III: GAICHPVFCPRRYKQIGTCGLPGTKCCKKP / IV: GAICHPVFCPRRYKQIGTCGLPGTKCCKKP (amide I:31-IV:C, I:32-II:C, II:31-III:C; cysteines drawn unpaired) [4H30]”, in series [1] (4H30 25 µg mL^−1, attachment at 4°C, RT-qPCR, Fig. 1d), the “H1N1 attachment to MDCK cells” value is on record as “increased the viral attachment to cells”. Moreover, the “4H30-induced increase in H1N1 attachment after removal of cellular GAGs” value in series [1] (MDCK cells treated with Hase and ChABC, 4H30 25 µg mL^−1, attachment at 4°C, Fig. 2d) was “significantly reduced when cells were treated with enzymes of Hase and ChABC”. In addition, in series [2], the “H1N1 viral release, supernatant virus at 8 hpi” value is “significantly inhibited H1N1 viral release from cells”; the “H1N1 viral release, supernatant virus at 18 hpi” value is “inhibited viral release at 18 hpi”; the “inhibition of viral release after removal of GAGs” value is “removal of GAGs reduced the activity of 4H30 in inhibiting viral release”; the “viral HA on cell membrane, anti-HA staining at 18 hpi” value was “more viral HA was detected on the cell membrane”. In series [3], the “cytotoxicity in MDCK cells” value is on record as “did not show noticeable toxicity in MDCK cells”. Besides, in series [4], the “binding to HA protein” value is listed as “bound to HA protein”. For the same substance, the “binding to LDLR” value in series [5] is on record as “bound to the LDLR receptor of rhinovirus”. The “effect on neuraminidase activity” value in series [6] is on record as “did not affect neuraminidase activity”. The “rhinovirus replication in nasal organoids” value in series [7] is “significantly inhibited rhinovirus replication in nasal organoids”.
